# Laboratory results taken from PubChem BioAssay (NCI).
#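 Test compounds were applied to cells in 96-well plates for 48 hours at 5 doses. GI50 marks 50% less growth. TGI: total growth inhibition.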
# How the values were obtained:
# Assay in all cases: inhibition of tumour cell growth, NCI panel, 48 h
# 786-0 renal = test system: 786-0 renal
# MDA-MB-231 breast = test system: MDA-MB-231 breast
# COLO 205 colon = test system: COLO 205 colon
# RXF 393 renal = test system: RXF 393 renal
# TK-10 renal = test system: TK-10 renal
# RPMI-8226 leukemia = test system: RPMI-8226 leukemia
# UO-31 renal = test system: UO-31 renal
# HCT-15 colon = test system: HCT-15 colon
# SK-OV-3 ovarian = test system: SK-OV-3 ovarian
# ACHN renal = test system: ACHN renal
Compound,GI50 (786-0 renal),TGI (786-0 renal),GI50 (MDA-MB-231 breast),TGI (MDA-MB-231 breast),GI50 (COLO 205 colon),TGI (COLO 205 colon),GI50 (RXF 393 renal),TGI (RXF 393 renal),GI50 (TK-10 renal),TGI (TK-10 renal),GI50 (RPMI-8226 leukemia),TGI (RPMI-8226 leukemia),GI50 (UO-31 renal),TGI (UO-31 renal),GI50 (HCT-15 colon),TGI (HCT-15 colon),GI50 (SK-OV-3 ovarian),TGI (SK-OV-3 ovarian),GI50 (ACHN renal),TGI (ACHN renal)
COc1cc(C(=O)Nc2cc(OC)c3ccn(C)c3c2)cc2c1C[C@]1(C)CC[C@@H](O)C(C)(C)[C@H]1O2,0.0878 µM,5.22 µM,1.86 µM,16.5 µM,1.4 µM,6.41 µM,0.0317 µM,0.485 µM,3.74 µM,43.8 µM,0.0392 µM,1.16 µM,0.0988 µM,1.17 µM,1.05 µM,> 100 µM,0.58 µM,5.11 µM,0.944 µM,> 100 µM
O=c1oc2ccc(Br)cc2c(=O)n1-c1ccc(I)cc1F,1.96 µM,6.16 µM,0.327 µM,2.54 µM,3.97 µM,15.1 µM,0.396 µM,1.93 µM,0.631 µM,7.39 µM,0.266 µM,1.16 µM,0.24 µM,1.22 µM,0.4 µM,5.96 µM,0.271 µM,2.13 µM,0.401 µM,6.04 µM
Cn1c(/C=C/[N+](=O)[O-])cc2ccccc21,2.15 µM,4.08 µM,5.49 µM,47.9 µM,1.88 µM,3.69 µM,1.66 µM,3.08 µM,4.04 µM,14.9 µM,3.18 µM,> 100 µM,1.47 µM,3.64 µM,3.24 µM,11.2 µM,13.2 µM,26.3 µM,3.42 µM,13.2 µM
CC(=O)Nc1ccc(COC(O)CN2CCCCC2)cc1[N+](=O)[O-] (centres undefined),,> 100 µM,,> 100 µM,,> 100 µM,,> 100 µM,,> 100 µM,,> 100 µM,,> 100 µM,,> 100 µM,,,,> 100 µM
Cn1c(=O)c(Oc2ccc(F)cc2F)cc2cnc(NC3CCS(=O)(=O)CC3)nc21,> 25 µM,> 25 µM,> 22 µM,> 25 µM,> 25 µM,> 25 µM,> 25 µM,> 25 µM,> 25 µM,> 25 µM,> 25 µM,> 25 µM,> 25 µM,> 25 µM,> 25 µM,> 25 µM,> 20 µM,> 25 µM,> 14.3 µM,> 25 µM
CC(C)(C)c1c2c(c(C(C)(C)C)c3c1OCN(Cc1ccccc1)C3)OCN(Cc1ccccc1)C2,,27.7 µM,,29.3 µM,,26.6 µM,,36.2 µM,,32.5 µM,,44.6 µM,,35.4 µM,,33.3 µM,,> 100 µM,,51.1 µM
O=C(O)c1ccc(C(=O)O)c(C(=O)Nc2ccc3c(c2)C(=O)c2ccccc2-3)c1,,> 100 µM,,> 100 µM,,> 100 µM,,> 100 µM,,> 100 µM,,> 100 µM,,> 100 µM,,> 100 µM,,> 100 µM,,> 100 µM
COc1ccc(-n2ccnc2-c2cc(OC)c(OC)c(OC)c2)cc1,5.65 µM,> 100 µM,6.13 µM,> 100 µM,1.33 µM,5.74 µM,1.87 µM,11.9 µM,4.19 µM,85 µM,3.78 µM,30.7 µM,4.91 µM,71.2 µM,1.53 µM,> 100 µM,5.76 µM,> 100 µM,,
CCCCCCCCC(=O)OCC(CS[As](C)C)OC(=O)CCCCCCCC (centres undefined),1.16 µM,> 40.1 µM,2.7 µM,18.4 µM,0.557 µM,24.8 µM,0.548 µM,10.7 µM,0.364 µM,3.14 µM,0.33 µM,2.16 µM,3.46 µM,> 39.9 µM,0.629 µM,10.4 µM,16.5 µM,> 67.6 µM,0.602 µM,3.62 µM
CN1C/C=C/CCOc2cccc(c2)-c2ccnc(n2)Nc2cccc(c2)C1,0.0317 µM,0.203 µM,0.0731 µM,1.08 µM,0.0204 µM,0.0442 µM,0.0207 µM,0.0447 µM,0.048 µM,0.506 µM,0.058 µM,0.879 µM,0.0251 µM,0.0849 µM,0.036 µM,3.18 µM,0.174 µM,3.82 µM,0.0307 µM,1.45 µM
COc1cc(-c2c(C#N)c(N)nc(N3CCOCC3)c2C#N)cc(OC)c1OC,> 100 µM,> 100 µM,22.6 µM,78.9 µM,5.39 µM,> 100 µM,> 100 µM,> 100 µM,> 100 µM,> 100 µM,> 100 µM,> 100 µM,96.1 µM,> 100 µM,> 100 µM,> 100 µM,81.1 µM,> 100 µM,> 100 µM,> 100 µM
COc1cc(C(=O)N/N=C/c2ccc(N(C)C)cc2)cc(OC)c1OC,0.66 µM,> 100 µM,1.89 µM,> 87.9 µM,0.406 µM,1.64 µM,0.234 µM,,,,0.344 µM,,0.656 µM,> 100 µM,0.447 µM,> 100 µM,0.478 µM,> 31.1 µM,1.28 µM,> 100 µM
COc1cc(-c2cc(-c3cc(OC)c(OC)c(OC)c3)nc3nc(N)[nH]c(=O)c23)ccc1Oc1ccnc2cc(Cl)ccc12,3.86 µM,> 100 µM,2.59 µM,24.7 µM,12.9 µM,30 µM,2.81 µM,9.35 µM,,,2.52 µM,10.2 µM,3.45 µM,> 100 µM,0.457 µM,24.4 µM,2.95 µM,9.36 µM,2.89 µM,82.7 µM
OCc1ccc(N2CCc3ccccc3C2)cc1Cl,16.6 µM,51.7 µM,12.4 µM,40.8 µM,0.0136 µM,0.0619 µM,13.5 µM,28.8 µM,,,0.617 µM,87.9 µM,8.28 µM,55.8 µM,3.35 µM,41.6 µM,0.754 µM,8.95 µM,18.4 µM,> 78.6 µM
